Reference: patent US7691416B2, “Methods of treating vascular disease” (priority 2002, dated 2010)

Test system: cGMP
Assay: cGMP immunoassay (EIA) of SMC lysates
Format: cell-based, mouse
Details: CO 250 ppm for 8 h or 16 h
From the text: Animals. Male (250-350 g) Brown Norway rats (RT1^n) were used as aortic graft donors and male (250-350 g) Lewis rats (RT11) as recipients. Dawley (400-450 g) rats were used in the balloon injury model. Adult male C57BL/6, C57/S129, p21^−/− and p53^−/− null mice were purchased from Jackson Laboratory (Bar Harbor, Me.). mkk3^(−/−) null mice were generated as described Lu et al. (EMBO. 18:1845-1857 (1999)). The inos^−/− and enos^−/− mice were bred at the University of Pittsburgh. Aortic transplant model. Aortic transplantation was performed as described in Shimizu et al. (Nat. Med. 7:738-741 (2001)). Briefly, 3 to 4 cm of descending aorta was harvested from the donor and implanted between the renal arteries and the aortic bifurcation of the recipient. Both edges of the native abdominal aorta were ligated. Balloon injury model. Balloon angioplasty was carried out as described in Murakami et al. (Atherosclerosis 157:361-368 (2001)). […] [^3H]thymidine incorporation was measured by scintillation spectroscopy and presented as mean counts/min/well. […] Areas from eight to ten captured images were calculated using digital imaging software as number of pixels corresponding to those areas. Twenty-four to forty-eight sections from each group were statistically analyzed with SPSS software version 10. […]

Q: For `[C-]#[O+]` [CO, carbon monoxide], which “Intracellular cGMP levels” value is on record?
A: increased
